Experimental findings from US8232584B2 (priority 2005, dated 2012) are described below.

The test system of assay [1] is Ab2, monoclonal antibody receptor cross reactive to f-PSA and PSA-ACT. It is filed as binding.
Assay [2] relates to monoclonal antibodies for PSA (Ab1). The class given is binding.
Assay [3] is classed as binding. Particulars: BT 5 ng/ml; PSA 100 ng/ml; BSA 10 microgram/ml; phosphate buffer pH 6.7.
The format of assay [4] is binding. The settings on record: CT 5 ng/ml; PSA 100 ng/ml; BSA 10 microgram/ml; phosphate buffer pH 6.7.
[5] abbreviates: f-PSA 1700 pg/ml, p-type silicon nanowire.

Where two headings read alike, the source gives them in different places.

Take “PSA-ACT: PSA-alpha-1-antichymotrypsin complex, cancer marker”: the “Conductance Change NW2-Ab2” value was found to be 19 nS in assay [1] (PSA-ACT 0.32 pg/ml), 67 nS in assay [1] (PSA-ACT 3.2 pg/ml), 124 nS in assay [1] (PSA-ACT 320 pg/ml) and 143 nS in assay [1] (PSA-ACT 3200 pg/ml).

Regarding “f-PSA: free prostate specific antigen, cancer marker protein, purchased from Calbiochem”, the “Conductance Change NW1-Ab1” value in assay [2] (f-PSA 0.085 pg/ml) came to 15 nS; in assay [2] (f-PSA 0.85 pg/ml), 45 nS; in assay [2] (f-PSA 8.5 pg/ml) it was 98 nS; in assay [2] (f-PSA 850 pg/ml), 185 nS; in assay [2] (setting [5]), 192 nS. In addition, the “Conductance Change NW2-Ab2” value in assay [1] (f-PSA 0.085 pg/ml) turned out to be 10 nS; in assay [1] (f-PSA 0.85 pg/ml), 50 nS; in assay [1] (f-PSA 8.5 pg/ml), 81 nS; in assay [1] (f-PSA 850 pg/ml) it was 132 nS; in assay [1] (setting [5]) it was 154 nS. For the same substance, the “conductance response to injection” value in assay [3] and in assay [4] was “no response was observed” in each case.
